Test results reported in publication PMC6270814, “Effects of Ursolic Acid Derivatives on Caco-2 Cells and Their Alleviating Role in Streptozocin-Induced Type 2 Diabetic Rats” (Molecules, 2014).

Experiments:
Caco-2 cells = test: MTT cytotoxicity assay on Caco-2 cells; type: cell-based, Human; conditions: Homo sapiens, 24 h, mean ± SD, n = 4, read-out: Inhibition Rate %
Experimental: Human intestinal Caco-2 cells (ATCC, Rockville, MD, USA) were incubated at 37 °C in a humidified atmosphere of 5% CO2 in air. The cells were cultured in Dulbecco’s […] medium (DMEM) with 10% heat-inactivated fetal bovine serum, 1% non-essential amino acids, 1% L-glutamine, 1% penicillin/streptomycin (Gibco Life Technologies, Grand Island, NY, USA). The cells were sub-cultured at confluence by 0.05% trypsin-0.5 mM EDTA treatment before they were applied in the experiment.
A MTT test was conducted to determine the possible toxicity of UA and its derivatives to Caco-2 cells. Briefly, cells were seeded at a density of 1 × 10^4 cells/mL in a 96-well plate and incubated for 24 h. The next day, cells were incubated with vehicle (0.1% DMSO) and compounds at 100, 50, 25, 12.5 μmol/L for 24 h, and then 5 g/L MTT solution (20 μL) was added for 4 h. Absorbance at 570 nm was measured using a Multimodel Plate Reader (Infinite 200, Tecan, Mannedorf, Switzerland).

GLUT-2 = test: Western blot of GLUT-2 protein expression in Caco-2 cells; type: cell-based, Human; conditions: 100 μM, 6 h
Experimental: Caco-2 cells were cultured on 6-well plates at a density of 1 × 10^6 cells/well for 13 days. The cells were placed in serum-free medium for 24 h prior to the treatment. Then UA and its derivatives (100 μM) were added, after 6 h incubation, the cells were immediately washed three times with ice-cold PBS and lysed in 200 μL lysis buffer. Cells were allowed to lyse on ice, and then scraped, vortexed, sonicated and stored at −80 °C for further analysis. Protein concentrations were determined as described and cell lysate was subjected to western blot analysis. Briefly, proteins with same amount were denatured in sample buffer, separated on 8% SDS-PAGE gel, and transferred onto a polyvinylidene diflouride membrane. The membranes were blocked for 1 h at 37 °C with 10% defatted milk in Tris-buffered saline (10 mM Tris-HCl, pH 7.5 and 137 mM NaCl) containing 0.05% Tween 20 (TBST). Membranes were then incubated overnight at 4 °C in blocking buffer with antibodies for GLUT-2, SGLT-1 and β-actin (EMD, Millipore, Billerica, MA, USA). Membranes were washed with TBST and incubated 1 h with appropriate secondary antibodies. Revelation was performed by using the enhanced chemiluminescence reagent and blue-light sensitive film. Densitometric analysis of films was performed with a Hewlett-Packard scanner equipped with a transparent adaptor and UN-SCAN-IT software.

[1] = tested on: STZ-induced diabetic rats; test: Fasting blood glucose in STZ-induced diabetic rats, 4 weeks treatment; type: in vivo, rat
Experimental: Adult male albino rats of Sprague-Dawley rats (180–220 g) were obtained from the Guangdong Medical Lab Animal Center, and maintained under standard laboratory conditions in a temperature (25–30 °C) and light-controlled (12-h light/dark cycle) room with 35%–60% humidity. The animals were acclimatized for 10 days before the experiments and provided with rodent chow and water ad libitum. The investigation was conducted in accordance with the Guide for the Care and Use of Laboratory Animals and approved by the institutional Animal Ethics Committee.
(§1) Diabetes was induced by a single intraperitoneal injection of streptozotocin (Sigma-Aldrich, St. Louis, MO, USA) at a dose of 65 mg/kg body weight. STZ was dissolved in 0.1 M cold citrate buffer, pH 4.5. Control group were injected with citrate buffer alone. After 7 days for the development of diabetes, plasma glucose levels were determined of each rat. Rats with fasting blood glucose (FBG) range of above 16.7 mmol/L were considered as DM rats and were used for further study.
(§2) According to the body weight and plasma glucose levels the rats were divided randomly into seven groups with six rats each and treated as follows: • Group I: Normal rats treated with 0.5% CMC-Na (2 mL/200 g body weight). • Group II: Diabetic rats treated with 0.5% CMC-Na. • Group III: Diabetic rats treated with 10 mg/kg of glibenclamide. • Group IV: Diabetic rats treated with 100 mg/kg of compound 1 (UA). • Group V: Diabetic rats treated with 100 mg/kg of compound 10. • Group VI: Diabetic rats treated with 100 mg/kg of compound 11. • Group VII: Diabetic rats treated with 100 mg/kg of compound 12.
(§3) The treatment was continued daily for 28 days. Blood glucose levels and body weight were measured every week to ascertain the status of diabetes. After 4 weeks of treatment, the animals were fasted for 12 h and sacrificed by cervical dislocation under mild anaesthetization, blood was collected into heparinized tubes and centrifuged at 2,000 rpm for 10 min. Livers and kidneys were removed, washed and homogenized in ice-cold normal saline. This homogenates were centrifuged at 3,000 rpm for 10 min at 4 °C, and the supernatants were collected for the estimate of antioxidant markers.
Fasting blood glucose levels were estimated on days 0, 7, 14, 28 with the single touch glucometer (Life Scan, Johnson & Johnson Company, New Brunswick, NJ, USA). Serum insulin level was measured by use of a commercial immunoassay kit by enzyme linked immunosorbent assay (Uscn. Life Science Inc., Wuhan, China). Serum total protein, albumin, triglycerides (TG), total cholesterol (TC), high-density lipoprotein cholesterol (HDL-C), and low-density lipoprotein cholesterol (LDL-C) were measured with an automatic biochemical analyzer (Sinnowa D240, Nanjing, China).

[2] = tested on: STZ-induced diabetic rats; test: Body weight and daily food intake of STZ-induced diabetic rats; type: in vivo, rat
Experimental: as §1, §2, §3

[3] = tested on: STZ-induced diabetic rats; test: Oxidative stress markers (GSH, SOD, MDA) in liver and kidney of STZ-induced diabetic rats; type: in vivo, rat; conditions: 4 weeks
Experimental: as §1, §2, §3
The tissue homogenates of liver and kidney were used for the estimate of antioxidant markers. Glutathione (GSH) level was measured with 5, 5'-dithiobis-(2-nitrobenzoic acid) (DTNB) as described by Sedlak and Lindsay. Superoxide dismutase (SOD) activity was assessed according to the method of Sinha. Malondialdehyde (MDA) activity was estimated with the thiobarbituric acid method.

Structure (SMILES): CCC(=O)O[C@H]1CC[C@@]2(C)C(CC[C@]3(C)C2CC=C2C4[C@@H](C)[C@H](C)CC[C@]4(C(=O)O)CC[C@]23C)C1(C)C (stereo partly shown) [Compound 10]
- inhibition at 100 µM (Caco-2 cells): 7.84 ± 4.15%
- effect on expression of protein GLUT-2 (GLUT-2): significant effects on reducing
- Fasting Blood Glucose Level, Week 0 ([1]; STZ diabetic rats, Week 0 (before treatment), compounds 100 mg/kg, glibenclamide 10 mg/kg, n = 6): 320.40 ± 12.96 mg/dL
- Fasting Blood Glucose Level, Week 1 ([1]; STZ diabetic rats, Week 1, compounds 100 mg/kg, glibenclamide 10 mg/kg daily, n = 6): 270.00 ± 16.74 mg/dL
- Fasting Blood Glucose Level, Week 2 ([1]; STZ diabetic rats, Week 2, compounds 100 mg/kg, glibenclamide 10 mg/kg daily, n = 6): 286.20 ± 18.90 mg/dL
- Fasting Blood Glucose Level, Week 3 ([1]; STZ diabetic rats, Week 3, compounds 100 mg/kg, glibenclamide 10 mg/kg daily, n = 6): 234.00 ± 14.58 mg/dL
- Fasting Blood Glucose Level, Week 4 ([1]; STZ diabetic rats, Week 4, compounds 100 mg/kg, glibenclamide 10 mg/kg daily, n = 6): 225.00 ± 11.70 mg/dL
- decrease in blood glucose levels as compared with diabetic control ([1]; end of the 4 week treatment, compound 10 100 mg/kg, glibenclamide 10 mg/kg): 49.6%
- daily food intake vs untreated diabetic rats ([2]; compounds 100 mg/kg, glibenclamide 10 mg/kg, oral): reduce daily food intake significantly
- body weight vs diabetic control ([2]; end of the treatment period, 100 mg/kg): significant increase
- SOD level in the liver and kidney ([3]; liver and kidney of STZ diabetic rats): great improvement
- GSH level in liver ([3]; liver of STZ diabetic rats): significant effects
- MDA level in the liver ([3]; liver of STZ diabetic rats, daily administration): obviously down-regulated
